Experimental data taken from PubChem BioAssay (NCI).
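Five concentrations, 48 hours, 96-well plates. GI50 is the concentration that inhibits growth by half. TGI denotes the concentration required for complete inhibition of growth.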

Legend:
Assay in all cases: NCI tumour cell line growth inhibition, 48 h
786-0 renal = tested on: 786-0 renal
A498 renal = tested on: A498 renal
A549 NSCLC = tested on: A549 NSCLC
ACHN renal = tested on: ACHN renal
BT-549 breast = tested on: BT-549 breast
CAKI-1 renal = tested on: CAKI-1 renal
CCRF-CEM leukemia = tested on: CCRF-CEM leukemia
COLO 205 colon = tested on: COLO 205 colon
DU-145 prostate = tested on: DU-145 prostate
EKVX NSCLC = tested on: EKVX NSCLC
HCC-2998 colon = tested on: HCC-2998 colon
HCT-116 colon = tested on: HCT-116 colon
HCT-15 colon = tested on: HCT-15 colon
HL-60(TB) leukemia = tested on: HL-60(TB) leukemia
HOP-62 NSCLC = tested on: HOP-62 NSCLC
HOP-92 NSCLC = tested on: HOP-92 NSCLC
HS 578T breast = tested on: HS 578T breast
HT29 colon = tested on: HT29 colon
IGROV1 ovarian = tested on: IGROV1 ovarian
K-562 leukemia = tested on: K-562 leukemia
KM12 colon = tested on: KM12 colon
LOX IMVI melanoma = tested on: LOX IMVI melanoma
M14 melanoma = tested on: M14 melanoma
MCF7 breast = tested on: MCF7 breast
MDA-MB-231 breast = tested on: MDA-MB-231 breast
MDA-MB-435 = tested on: MDA-MB-435
MOLT-4 leukemia = tested on: MOLT-4 leukemia
NCI-H226 lung = tested on: NCI-H226 lung
NCI-H23 lung = tested on: NCI-H23 lung
NCI-H460 lung = tested on: NCI-H460 lung
NCI-H522 lung = tested on: NCI-H522 lung
NCI/ADR-RES ovarian = tested on: NCI/ADR-RES ovarian
OVCAR-3 ovarian = tested on: OVCAR-3 ovarian
OVCAR-4 ovarian = tested on: OVCAR-4 ovarian
OVCAR-5 ovarian = tested on: OVCAR-5 ovarian
OVCAR-8 ovarian = tested on: OVCAR-8 ovarian
PC-3 prostate = tested on: PC-3 prostate
RPMI-8226 leukemia = tested on: RPMI-8226 leukemia
RXF 393 renal = tested on: RXF 393 renal
SF-268 CNS = tested on: SF-268 CNS
SF-295 CNS = tested on: SF-295 CNS
SF-539 CNS = tested on: SF-539 CNS
SK-MEL-2 melanoma = tested on: SK-MEL-2 melanoma
SK-MEL-28 melanoma = tested on: SK-MEL-28 melanoma
SK-MEL-5 melanoma = tested on: SK-MEL-5 melanoma
SK-OV-3 ovarian = tested on: SK-OV-3 ovarian
SN12C renal = tested on: SN12C renal
SNB-19 CNS = tested on: SNB-19 CNS
SNB-75 CNS = tested on: SNB-75 CNS
SR leukemia = tested on: SR leukemia
SW-620 colon = tested on: SW-620 colon
T-47D breast = tested on: T-47D breast
TK-10 renal = tested on: TK-10 renal
U251 CNS = tested on: U251 CNS
UACC-62 melanoma = tested on: UACC-62 melanoma
UO-31 renal = tested on: UO-31 renal

`COc1ncc(-c2ccc3ncnc(Nc4cccc(Cl)c4)c3c2)cc1NS(C)(=O)=O` was tested, and the GI50 (786-0 renal) was 2.72 µM, the TGI (786-0 renal) was 24.9 µM and the GI50 (A498 renal) was 0.605 µM. The TGI (A498 renal) was 2.94 µM, the GI50 (A549 NSCLC) was 1.2 µM and the TGI (A549 NSCLC) was 13.2 µM. The GI50 (ACHN renal) was 0.485 µM, the TGI (ACHN renal) was > 100 µM and the GI50 (BT-549 breast) was 1.92 µM. The TGI (BT-549 breast) was 9.32 µM, the GI50 (CAKI-1 renal) was 0.457 µM and the TGI (CAKI-1 renal) was 10.8 µM. For the same molecule, the GI50 (CCRF-CEM leukemia) was 2.81 µM, the TGI (CCRF-CEM leukemia) was 43.2 µM and the GI50 (COLO 205 colon) was 1.75 µM. The TGI (COLO 205 colon) was 7.36 µM, the GI50 (DU-145 prostate) was 0.756 µM and the TGI (DU-145 prostate) was 21.1 µM. It also gave a GI50 (EKVX NSCLC) of 0.579 µM, a TGI (EKVX NSCLC) of 9.65 µM and a GI50 (HCC-2998 colon) of 1.82 µM. It also gave a TGI (HCC-2998 colon) of 14.8 µM, a GI50 (HCT-116 colon) of 2.33 µM and a TGI (HCT-116 colon) of 10.9 µM. It also gave a GI50 (HCT-15 colon) of 1.66 µM, a TGI (HCT-15 colon) of 13.2 µM and a GI50 (HL-60(TB) leukemia) of 0.848 µM. The TGI (HL-60(TB) leukemia) was 16.4 µM, the GI50 (HOP-62 NSCLC) was 1.53 µM and the TGI (HOP-62 NSCLC) was 42.4 µM. For the same molecule, the GI50 (HOP-92 NSCLC) was 0.472 µM, the TGI (HOP-92 NSCLC) was 5.28 µM and the GI50 (HS 578T breast) was 0.852 µM. It also gave a TGI (HS 578T breast) of 9.52 µM, a GI50 (HT29 colon) of 1.07 µM and a TGI (HT29 colon) of 13.1 µM. It also gave a GI50 (IGROV1 ovarian) of 0.189 µM, a TGI (IGROV1 ovarian) of 0.815 µM and a GI50 (K-562 leukemia) of 4.51 µM. For the same molecule, the TGI (K-562 leukemia) was 85.3 µM, the GI50 (KM12 colon) was 3.55 µM and the TGI (KM12 colon) was 16.1 µM. It also gave a GI50 (LOX IMVI melanoma) of 1.68 µM, a TGI (LOX IMVI melanoma) of 11.1 µM and a GI50 (M14 melanoma) of 2.81 µM. For the same molecule, the TGI (M14 melanoma) was 19.2 µM, the GI50 (MCF7 breast) was 0.404 µM and the TGI (MCF7 breast) was 11.1 µM. It also gave a GI50 (MDA-MB-231 breast) of 1.99 µM, a TGI (MDA-MB-231 breast) of 19.6 µM and a GI50 (MDA-MB-435) of 2.77 µM. It also gave a TGI (MDA-MB-435) of 17.3 µM, a GI50 (MOLT-4 leukemia) of 1.49 µM and a TGI (MOLT-4 leukemia) of 5.21 µM. The GI50 (NCI-H226 lung) was 4.83 µM, the TGI (NCI-H226 lung) was 24.2 µM and the GI50 (NCI-H23 lung) was 1.62 µM. The TGI (NCI-H23 lung) was 8.69 µM, the GI50 (NCI-H460 lung) was 1.87 µM and the TGI (NCI-H460 lung) was > 100 µM. For the same molecule, the GI50 (NCI-H522 lung) was 2.14 µM, the TGI (NCI-H522 lung) was 18.4 µM and the GI50 (NCI/ADR-RES ovarian) was 2.38 µM. It also gave a TGI (NCI/ADR-RES ovarian) of 29.1 µM, a GI50 (OVCAR-3 ovarian) of 1.17 µM and a TGI (OVCAR-3 ovarian) of 7.7 µM. For the same molecule, the GI50 (OVCAR-4 ovarian) was 4.97 µM, the TGI (OVCAR-4 ovarian) was 64.3 µM and the GI50 (OVCAR-5 ovarian) was 0.273 µM. The TGI (OVCAR-5 ovarian) was 6.51 µM, the GI50 (OVCAR-8 ovarian) was 3.75 µM and the TGI (OVCAR-8 ovarian) was > 100 µM. It also gave a GI50 (PC-3 prostate) of 2.02 µM, a TGI (PC-3 prostate) of 16.6 µM and a GI50 (RPMI-8226 leukemia) of 2.19 µM. For the same molecule, the TGI (RPMI-8226 leukemia) was 9.24 µM, the GI50 (RXF 393 renal) was 1.42 µM and the TGI (RXF 393 renal) was 4.79 µM. The GI50 (SF-268 CNS) was 1.99 µM, the TGI (SF-268 CNS) was 19.2 µM and the GI50 (SF-295 CNS) was 1.71 µM. It also gave a TGI (SF-295 CNS) of 10.8 µM, a GI50 (SF-539 CNS) of 2.09 µM and a TGI (SF-539 CNS) of 9.92 µM. The GI50 (SK-MEL-2 melanoma) was 2.27 µM, the TGI (SK-MEL-2 melanoma) was 8.25 µM and the GI50 (SK-MEL-28 melanoma) was 1.81 µM. For the same molecule, the TGI (SK-MEL-28 melanoma) was 41.3 µM, the GI50 (SK-MEL-5 melanoma) was 1.37 µM and the TGI (SK-MEL-5 melanoma) was 3.22 µM. The GI50 (SK-OV-3 ovarian) was 0.813 µM, the TGI (SK-OV-3 ovarian) was 4.16 µM and the GI50 (SN12C renal) was 1.76 µM. For the same molecule, the TGI (SN12C renal) was 31.8 µM, the GI50 (SNB-19 CNS) was 3.19 µM and the TGI (SNB-19 CNS) was 31.3 µM. For the same molecule, the GI50 (SNB-75 CNS) was 0.158 µM, the TGI (SNB-75 CNS) was 5.82 µM and the GI50 (SR leukemia) was 3.91 µM. For the same molecule, the TGI (SR leukemia) was > 100 µM, the GI50 (SW-620 colon) was 3.22 µM and the TGI (SW-620 colon) was 17.7 µM. For the same molecule, the GI50 (T-47D breast) was 0.169 µM, the TGI (T-47D breast) was 1.33 µM and the GI50 (TK-10 renal) was 0.183 µM. The TGI (TK-10 renal) was 1.4 µM, the GI50 (U251 CNS) was 4.11 µM and the TGI (U251 CNS) was 31.6 µM. For the same molecule, the GI50 (UACC-62 melanoma) was 1.79 µM, the TGI (UACC-62 melanoma) was 12.2 µM and the GI50 (UO-31 renal) was 0.354 µM. For the same molecule, the TGI (UO-31 renal) was 8.96 µM.
